Key:
[1] = system: PC-9 cells; test: MTT assay, PC-9 cells; type: cell-based; conditions: human non-small cell lung cancer cells, 72 h, read-out: Cytotoxic activity (IC50) PC-9
Experimental: (§1) Primary human liver HL-7702 cells were purchased from SIBS (Shanghai Institutes for Biological Sciences, Shanghai, China) while MCF-7, A549, PC-9 and PC-3 cells were from ATCC (American Type Culture Collection, Rockville, MD, USA). HL-7702, PC-9 and A549 cells were incubated with Roswell Park Memorial Institute (RPMI) 1640 medium and MCF-7 were cultured in Dulbecco’s Modified Eagle’s Medium (DMEM) supplemented with 10% heat-inactivated fetal bovine serum (FBS) and 1% antibiotics (penicillin and streptomycin). PC-3, a human prostate adenocarcinoma cell, was maintained in Ham’s F-12 Medium supplemented with 10% FBS, 1% penicillin/streptomycin and 1% glutamine. All cells were cultured at 37 °C in an incubator containing 5% CO2. The cell viability was determined by using the MTT (methyl thiazolyl tetrazolium bromide) assay. Briefly, cells were seeded in 96-well plates (4 × 10^3 cells/well) overnight and exposed to the synthesized compounds with various concentrations. Camptothecin and dimethyl sulfoxide (DMSO) served as a positive control and a negative control respectively. After 72 h of incubation, 20 μL of MTT (5 mg/mL in phosphate buffer saline (PBS)) were added into each well. Dissolved yellowish MTT is converted to an insoluble purple formazan during incubation (4 h). In order to dissolve the formazan crystals, 100 μL of lysis solution (10% SDS (sodium dodecyl sulfate)-5% isobutyl alcohol-0.01M HCl) was added into per well. Finally, the optical density (OD) of solution in the plates was measured using a microplate reader at 570 nm after dissolving overnight. Cell viability was calculated by using the following formula: […].

[2] = system: A549 cells; test: MTT assay, A549 cells; type: cell-based; conditions: Homo sapiens, A549, 72 h, human non-small cell lung cancer cells, read-out: Cytotoxic activity (IC50) A549
Experimental: as §1

[3] = MTT assay, HL-7702 cells; type: cell-based, human; conditions: HL-7702 cells (normal liver cells); normal human liver cells, MTT, 72 h; read-out: Cytotoxic activity (IC50) HL-7702
Experimental: as §1

[4] = system: MCF-7 cells; test: MTT assay, MCF-7 cells; type: cell-based; conditions: MCF7, human breast cancer cells, 72 h, read-out: Cytotoxic activity (IC50) MCF-7
Experimental: as §1

[5] = system: PC-3 cells; test: MTT assay, PC-3 cells; type: cell-based; conditions: human prostate cancer cells, 72 h, read-out: Cytotoxic activity (IC50) PC-3
Experimental: as §1

[6] = system: caspase-3; test: Caspase-3 activity assay; type: cell-based, human; conditions: A549 cells, 0, 1, 5 μM, 48 h
Experimental: Briefly, A549 cells were cultured at 2 × 10^5 cells/well in 6-well plates and incubated with different concentrations of compounds (0, 1, 5 µM) for 48 h. At the end of the treatment, cells were harvested and lysed by the addition of lysis buffer from the caspase-3 assay kit. Aliquots of cell lysate were added to 96-well plates and the supernatant of cell lysates were mixed with buffer containing the above substrate peptides for 2 h at 37 °C. The absorbance in each well was measured at 405 nm using a microplate reader.

[7] = system: Bcl-2; test: Western blotting, Bcl-2; type: cell-based, human; conditions: A549 cells, 0-10 μM, 72 h, western blot
Experimental: (§2) Total protein samples were extracted from A549 cells. cells were treated with different concentrations of compounds for 72 h, then the cells were collected, homogenized in 100 µL of ice-cold lysis buffer containing 2% SDS (sodium dodecyl sulfate), 10% DTT (dithiothreitol), 10% glycerin, 0.1% BPB (bromophenol blue) and 50mM Tris buffer (pH 6.8). After cell lyses were boiled for 30 min at 100 °C, samples were resolved on 12% SDS-PAGE (polyacrylamide gel) and then transferred to nitrocellulose (NC) membranes. Then the membranes were blocked with 5% skim milk at room temperature for 1 h. After incubation, the membranes were probed by primary antibodies for β-actin, Bax (BCL2-associated X protein) and Bcl-2 (B-cell lymphoma-2) at 4 °C overnight. After the blots were washed in TBST (Tris-base solution-Tween 20), membranes were incubated with HRP (horseradish peroxidase) -conjugated IgG secondary antibodies for 1 h at 37 °C. Finally, a Chemi-Doc image analyzer was used to determine protein expression levels by analyzing the signals captured on the NC membranes.

[8] = system: HL-7702 cells; test: MTT assay, HL-7702 cells; type: cell-based, human; conditions: HL-7702, MTT
Experimental: as §1

[9] = system: A549 cells; test: Colony formation assay; type: cell-based; conditions: Homo sapiens, read-out: inhibition rate of colony formation
Experimental: The colony formation assay was executed to assess the colony forming ability of cancer cells treated by compounds. After being trypsinized and counted, the cells were seeded again on a 6-well plate with 4000 cells/well. Subsequently, cells were incubated at 37 °C in 5% CO2 overnight with medium. Afterwards, the cells were being treated with drugs (1 μM, 10 μM) and camptothecin (0.1 μM) for 10 days. Then, fresh PBS (1 mL/well) was added to wash the cells twice, before fixing with the stationary solution (10% acetic acid- 10% methanol- 80% dd H2O, 1 mL/well) at room temperature for 30 min. After that, 1% crystal violet was used to stain the cells. The cell viability was evaluated by the number of purple colonies.

[10] = system: A549 cells; test: Hoechst 33258 staining (apoptosis); type: cell-based, human; conditions: 72 h
Experimental: For Hoechst staining, A549 cells were seeded in 6-well plates (8 × 10^4 cells/well) and allowed to adhere overnight. Compounds at a final concentration of 10, 5 and 1 µM were used to treat cells in the exponential growth phase for 72 h. Following this, the staining solution was added to the well plates and held at room temperature for 10 min. Afterwards, Hoechst 33258 was added to dye the cells for 10 min at room temperature in the dark. After washing two times with PBS, the treated cells were photographed under a semi-electrical fluorescence microscope (Olympus BX53, Olympus, Tokyo, Japan), to capture images of the stained nuclei from each well from randomly selected regions.

[11] = system: Bax; test: Western blotting, Bax; type: cell-based, human; conditions: A549 cells, 0-10 μM, 72 h, western blot
Experimental: as §2

Row | Compound | IC50 [1] [µM] | IC50 [2] [µM] | melting point [°C] | IC50 at 72 h [3] [µM] | IC50 [4] [µM] | IC50 [5] [µM] | caspase-3 activity [6] | Bcl-2 protein expression level [7] | Bcl-2/Bax ratio ([7]; compared to control) | toxicity to normal human liver cells [8] | inhibition at 1 µM [9] [%] | nuclear morphology, Hoechst 33258 staining ([10]; 1 μM) | nuclear morphology, Hoechst 33258 staining ([10]; 5 and 10 μM) | Bax protein expression level [11]
1 | O=c1c2c3c(sc2nc(-c2cccs2)n1Cc1ccccc1)CCCC3 [Compound 5] | 81 ± 3.94 | > 100 | 185 to 187 | > 100 | 97.5 ± 0.13 | > 100 |  |  |  |  |  |  |  | 
2 | O=c1c2c3c(sc2nc(-c2cccc(Cl)c2)n1CCc1ccc(O)cc1)CCCC3 [Compound 9] | > 100 | 19.6 ± 0.33 | 238 to 240 | > 100 | 30.7 ± 0.29 | > 100 |  |  |  |  |  |  |  | 
3 | O=c1c2c3c(sc2nc(-c2ccco2)n1Cc1ccccc1)CCCCC3 [Compound 11] | > 100 | 51.42 ± 0.46 | 192 to 194 | > 100 | 65.63 ± 0.26 | > 100 |  |  |  |  |  |  |  | 
4 | Cc1cc(-c2nc3sc4c(c3c(=O)n2CCc2ccc(O)cc2)CCCCC4)sc1C [Compound 14] | 86.33 ± 0.22 | 49.8 ± 0.68 | 186 to 188 | 68.64 ± 0.26 | 46.1 ± 0.48 | 84.68 ± 0.48 |  |  |  |  |  |  |  | 
5 | O=c1c2c3c(sc2nc(-c2ccccc2)n1CCc1ccc(O)cc1)CCCCC3 [Compound 15] | > 100 | 0.94 ± 0.01 |  | > 100 | 17.3 ± 0.2 | 47.5 ± 3.39 | accumulation of caspase-3 in the cytosol | reduction of Bcl-2 level | significant decrease in the proportion of Bcl-2/Bax | no toxicity to normal human liver cells | 56 | brightly stained nuclei due to chromatin condensation | cell membrane rupture and contraction were observed | increase of Bax level
6 | O=c1c2c3c(sc2nc(-c2ccc(Cl)cc2)n1Cc1ccccc1)CCCCC3 [Compound 16] | > 100 | 81 ± 1.04 | 170 to 172 | > 100 | > 100 | > 100 |  |  |  |  |  |  |  | 
7 | O=c1c2c3c(sc2nc(-c2ccc(F)cc2)n1Cc1ccccc1)CCCCC3 [Compound 17] | > 100 | > 100 | 146 to 148 | > 100 | > 100 | > 100 |  |  |  |  |  |  |  | 
8 | Cc1sc2nc(-c3cccs3)n(Cc3ccccc3)c(=O)c2c1C [Compound 20] | > 100 | 80.1 ± 0.83 | 162 to 164 | > 100 | > 100 | > 100 |  |  |  |  |  |  |  | 
9 | Cc1sc2nc(-c3ccccc3)n(CCc3ccc(O)cc3)c(=O)c2c1C [Compound 22] | > 100 | > 100 | 251 to 253 | > 100 | 21.9 ± 0.82 | > 100 |  |  |  |  |  |  |  | 

— PMC6843832, “Synthesis of Novel Analogs of Thieno[2,3-d] Pyrimidin-4(3H)-ones as Selective Inhibitors of Cancer Cell Growth” (Biomolecules, 2019)
